Assay results reported in ChEMBL document CHEMBL1129052, “2-[(2-Aminobenzyl)sulfinyl]-1-(2-pyridyl)-1,4,5,6-tetrahydrocyclopent[d]imidazoles as a novel class of gastric H+/K+-ATPase inhibitors” (J Med Chem, 1996).

Tests used:
[1] = biological target: T1, Potassium-transporting ATPase (Rattus norvegicus) (UniProt P09626+P18598); assay: Effect in vivo on gastric H+/K+ -ATPase activity at 24 hrs following intraduodenal administration of 40 mg/Kg in rats; type: functional, organism-based; settings: Stomach
[2] = biological target: T1, Potassium-transporting ATPase (Rattus norvegicus); assay: Effect in vivo on gastric H+/K+ -ATPase activity at 3 hrs following intraduodenal administration of 40 mg/Kg in rats; type: functional, organism-based; settings: Stomach
[3] = biological target: T1, Potassium-transporting ATPase (Rattus norvegicus); assay: Effect in vivo on gastric H+/K+ -ATPase activity at 48 hrs following intraduodenal administration of 40 mg/Kg in rats; type: functional, organism-based; settings: Stomach
[4] = biological target: T1, Potassium-transporting ATPase (Rattus norvegicus); assay: Effect in vivo on gastric H+/K+ -ATPase activity at 6 hrs following intraduodenal administration of 40 mg/Kg in rats; type: functional, organism-based; settings: Stomach
[5] = biological target: T1, Potassium-transporting ATPase (Rattus norvegicus); assay: Effect in vivo on gastric H+/K+ ATPase activity at 1.5 hrs following intraduodenal administration of 40 mg/Kg in rats; type: functional, organism-based; settings: Stomach
[6] = biological target: T1, Potassium-transporting ATPase (Rattus norvegicus); assay: Effect in vivo on gastric H+/K+ ATPase activity at 48 hrs following intraduodenal administration of 40 mg/Kg in rats injected intraperitoneally with 1 mg/Kg of cycloheximide; type: functional, organism-based; settings: Stomach
[7] = biological target: T1, Potassium-transporting ATPase (Rattus norvegicus); assay: Gastric antisecretory activity was tested in rats at 30 mg/kg, po expressed as the percentage of inhibition against the acid output of the control group; type: functional, organism-based; parameters: dose 30 mg/kg
[8] = biological target: T1, Potassium-transporting ATPase (Rattus norvegicus); assay: Effect in vivo on gastric H+/K+ ATPase activity at 24 hrs following intraduodenal administration of 40 mg/Kg in rats injected intraperitoneally with 1 mg/Kg of cycloheximide; type: functional, organism-based; settings: Stomach
[9] = biological target: Potassium-transporting ATPase (Sus scrofa, UniProt P19156); assay: In vitro inhibition against H+/K+ ATPase from porcine gastric mucosal membrane vesicles; type: tissue-based, Gastric mucosa
[10] = biological target: T1, Potassium-transporting ATPase (Rattus norvegicus); assay: Effect in vivo on gastric H+/K+ ATPase activity at 10 hrs following intraduodenal administration of 40 mg/Kg in rats; type: functional, organism-based; settings: Stomach
[11] = biological target: T1, Potassium-transporting ATPase (Rattus norvegicus); assay: Effect in vivo on gastric H+/K+ ATPase activity at 10 hrs following intraduodenal administration of 40 mg/Kg in rats injected intraperitoneally with 1 mg/Kg of cycloheximide; type: functional, organism-based; settings: Stomach
[12] = biological target: T1, Potassium-transporting ATPase (Rattus norvegicus); assay: Effect in vivo on gastric H+/K+ ATPase activity at 24 hrs following intraduodenal administration of 40 mg/Kg in rats; type: functional, organism-based; settings: Stomach
[13] = biological target: T1, Potassium-transporting ATPase (Rattus norvegicus); assay: Effect in vivo on gastric H+/K+ ATPase activity at 3 hrs following intraduodenal administration of 40 mg/Kg in rats; type: functional, organism-based; settings: Stomach
[14] = biological target: T1, Potassium-transporting ATPase (Rattus norvegicus); assay: Effect in vivo on gastric H+/K+ ATPase activity at 6 hrs following intraduodenal administration of 40 mg/Kg in rats; type: functional, organism-based; settings: Stomach

Potassium-transporting ATPase, sequence (P18434 whole entry): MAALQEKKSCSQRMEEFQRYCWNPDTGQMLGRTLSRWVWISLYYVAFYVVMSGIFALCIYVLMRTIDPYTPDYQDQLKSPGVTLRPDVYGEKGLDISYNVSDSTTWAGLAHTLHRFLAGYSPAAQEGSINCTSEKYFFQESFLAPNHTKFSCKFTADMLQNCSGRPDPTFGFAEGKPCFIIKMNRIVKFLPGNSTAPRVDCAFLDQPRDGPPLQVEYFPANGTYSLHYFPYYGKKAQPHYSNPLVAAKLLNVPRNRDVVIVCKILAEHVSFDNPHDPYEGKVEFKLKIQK
Potassium-transporting ATPase, sequence (P19156 whole entry): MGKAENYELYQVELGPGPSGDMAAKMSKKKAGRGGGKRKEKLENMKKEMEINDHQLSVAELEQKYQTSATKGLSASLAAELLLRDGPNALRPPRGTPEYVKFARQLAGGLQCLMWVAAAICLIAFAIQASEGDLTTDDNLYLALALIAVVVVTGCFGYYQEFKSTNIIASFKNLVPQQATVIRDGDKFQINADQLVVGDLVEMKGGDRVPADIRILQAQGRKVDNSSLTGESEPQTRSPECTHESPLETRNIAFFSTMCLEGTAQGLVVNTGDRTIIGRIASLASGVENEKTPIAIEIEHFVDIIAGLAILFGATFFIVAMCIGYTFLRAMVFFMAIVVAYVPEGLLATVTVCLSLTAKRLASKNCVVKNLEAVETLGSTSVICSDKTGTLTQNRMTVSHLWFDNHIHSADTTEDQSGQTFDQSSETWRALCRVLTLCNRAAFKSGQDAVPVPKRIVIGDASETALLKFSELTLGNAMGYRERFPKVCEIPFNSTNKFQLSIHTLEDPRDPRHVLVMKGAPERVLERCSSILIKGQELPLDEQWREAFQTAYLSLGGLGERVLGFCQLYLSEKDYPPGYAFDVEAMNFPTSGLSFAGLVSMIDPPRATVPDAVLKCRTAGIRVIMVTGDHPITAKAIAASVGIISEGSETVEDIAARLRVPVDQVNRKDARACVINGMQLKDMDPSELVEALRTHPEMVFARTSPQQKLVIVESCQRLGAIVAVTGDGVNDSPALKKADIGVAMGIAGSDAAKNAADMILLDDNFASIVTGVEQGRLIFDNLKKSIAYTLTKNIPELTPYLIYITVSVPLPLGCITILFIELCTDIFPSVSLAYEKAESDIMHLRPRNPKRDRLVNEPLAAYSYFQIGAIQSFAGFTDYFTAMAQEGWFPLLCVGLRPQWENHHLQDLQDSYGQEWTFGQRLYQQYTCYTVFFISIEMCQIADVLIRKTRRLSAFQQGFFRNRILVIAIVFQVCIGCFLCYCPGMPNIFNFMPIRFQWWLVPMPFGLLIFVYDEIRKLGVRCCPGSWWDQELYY

SMILES	Control [1] [%]	Control [2] [%]	Control [3] [%]	Control [4] [%]	Control [5] [%]	Control [6] [%]	inhibition [7] [%]	Control [8] [%]	IC50 [9] [µM]	Control [10] [%]	Control [11] [%]	Control [12] [%]	Control [13] [%]	Control [14] [%]
COc1ccc2[nH]c([S+]([O-])Cc3ncc(C)c(OC)c3C)nc2c1 (configuration not stated)	51.7	37.1	71.1	27.8	45.4	34.1	100	36.1						
Cc1cccnc1-n1c([S+]([O-])Cc2ccccc2N)nc2c1CCC2 (configuration not stated)					48.8		95	95.4	> 100	79.6	72.9	88.9	46	69.2
